Data reported in patent US11529323B2 (priority 2017, dated 2022).

Assays:
[1] = Jones et al. 2010; cited from earlier work
[2] = tested on: C-26 colon adenocarcinoma cachexia model; experiment: Combined androgen and AR-42 study (Study 3), C-26 model; assay type: in vivo, mouse; conditions: Study 3
Description: These studies were performed as previously described (Tseng Y C, et al. J Natl Cancer Inst. 2015 107(12):djv274) with modifications. Tumors were established in the right flank by subcutaneous injection of C-26 cells (0.5×10^6 cells in 0.1 mL). […] TFM-4AS-1 (a potent experimental SARM), dihydrotestosterone (DHT) and vehicles were administered by subcutaneous injection.
Six days after cell injection, animals with palpable tumors were treated once daily for 13 days with vehicles for AR-42 and TFM-4AS-1/DHT (n=9), AR-42 (10 mg/kg; TFM-4AS-1/DHT vehicle; n=10), TFM-4AS-1 (10 mg/kg; AR-42 vehicle; n=9), DHT (3 mg/kg; AR-42 vehicle; n=10), the combination of AR-42 and TFM-4AS-1 (10 mg/kg each; n=9), or the combination of AR-42 (10 mg/kg) and DHT (3 mg/kg)(n=10). Grip strength was measured and tissues collected as in the previous studies.
Forelimb grip strength was measured using Bio-GS3 Grip Strength Test Meter (Forceleader DBA Bioseb, Pinellas Park, Fla.). Each mouse was held by the base of its tail and lowered over the apparatus until its forepaws grasped the metal pull bar. The mouse was then gently pulled horizontally in a straight line away from the grip strength meter until the mouse released the bar. The force applied to the bar at the moment of release was recorded as the peak force. Five measurements were taken from each mouse, the average of which was designated as the mouse's grip strength.

For C[C@](O)(COc1ccc(Cl)c(F)c1)C(=O)Nc1ccc(C#N)c(C(F)(F)F)c1 [S-23], the “effect on orchiectomy- and glucocorticoid-mediated wasting” value [1] is given as “reversed orchiectomy- and glucocorticoid-mediated wasting”.

In the case of CN1C(=O)C=C[C@]2(C)[C@H]3CC[C@]4(C)[C@@H](C(=O)Nc5ccccc5C(F)(F)F)CC[C@H]4[C@@H]3CC[C@@H]12 [TFM-4AS-1], the “effect on body weight” value ([2]; TFM-4AS-1 10 mg/kg monotherapy) is reported as “did not spare body weight” and the “effect on mass of gastrocnemius or quadriceps” value ([2]; monotherapy (TFM-4AS-1 10 mg/kg; AR-42 10 mg/kg)) is reported as “did not spare”.

With C[C@]12CCC(=O)C[C@@H]1CC[C@@H]1[C@@H]2CC[C@]2(C)[C@@H](O)CC[C@@H]12 [DHT, dihydrotestosterone] the tumor growth ([2]; DHT alone 3 mg/kg, after 8 days of administration) was “tumor growth was significantly suppressed”.
